Values of other authors, collected in patent publication US20050163759A1, “Compositions and methods for ex vivo preservation of blood vessels for vascular grafts using inhibitors of type I and/or type II phosphodiesterases” (priority 2003, published 2005).

Test system: endothelial cells
Details: stated as known; no experiment described

CCCC(=O)Nc1ncnc2c1ncn2[C@@H]1O[C@@H]2COP(=O)(O)O[C@H]2[C@H]1OC(=O)CCC [db cAMP, dibutyryl adenosine 3′,5′-cyclic monophosphate]
db cAMP concentrations that become toxic to endothelial cells: higher than 4 mM
